Tests used:
[1] = tested on: HCC827; experiment: Antiproliferative activity against human HCC827 cells after 72 hrs by MTT assay; format: functional, cell-based; conditions: HCC827, 72 h
[2] = tested on: NCI-H1975; experiment: Antiproliferative activity against human NCI-H1975 cells after 72 hrs by MTT assay; format: functional, cell-based; conditions: NCI-H1975, 72 h
[3] = tested on: NCI-H460; experiment: Antiproliferative activity against human H460 cells after 72 hrs by MTT assay; format: functional, cell-based; conditions: NCI-H460, 72 h
[4] = tested on: A549; experiment: Antiproliferative activity against human A549 cells after 72 hrs by MTT assay; format: functional, cell-based; conditions: A549, 72 h
[5] = Antiproliferative activity against human SPC-A1 cells after 72 hrs by MTT assay; format: functional, cell-based; conditions: SPCA1, 72 h
[6] = tested on: NCI-H1650; experiment: Antiproliferative activity against human NCI-H1650 cells after 72 hrs by MTT assay; format: functional, cell-based; conditions: NCI-H1650, 72 h
[7] = tested on: PC-9; experiment: Antiproliferative activity against human PC9 cells after 72 hrs by MTT assay; format: functional, cell-based; conditions: PC-9, 72 h
[8] = tested on: NCI-H441; experiment: Antiproliferative activity against human H441 cells after 72 hrs by MTT assay; format: functional, cell-based; conditions: NCI-H441, 72 h
[9] = tested on: NCI-H358; experiment: Antiproliferative activity against human NCI-H358 cells after 72 hrs by MTT assay; format: functional, cell-based; conditions: NCI-H358, 72 h
[10] = Apparent aqueous solubility of the compound by HPLC analysis; format: physicochemical; conditions: aqueous solution

| IC50 [1] [µM] | IC50 [2] [µM] | IC50 [3] [µM] | IC50 [4] [µM] | IC50 [6] [µM] | IC50 [7] [µM] | IC50 [8] [µM] | IC50 [9] [µM] | solubility [10] [µg/mL] | SMILES | IC50 [5] [µM] |
| --- | --- | --- | --- | --- | --- | --- | --- | --- | --- | --- |
| > 40 | > 40 | > 40 |  |  |  |  |  |  | C=CCc1ccc(O)c(-c2cc(CC(O)CO)ccc2O)c1 (stereo not given) |  |
| > 20 | > 20 | > 20 |  |  |  |  |  |  | C=CCc1ccc(O)c(-c2cc(CC=C)cc(CN3CCC(NC(=O)C=C)CC3)c2O)c1 |  |
| > 20 | > 20 | > 20 |  |  |  |  |  |  | C=CCc1ccc(O)c(-c2cc(CC=C)cc(CN3CCN(C(C)C)CC3)c2O)c1 |  |
| > 40 | > 40 | > 40 |  |  |  |  |  |  | C=CCc1cc(-c2cc(O)ccc2O)ccc1O [MAGNATRIOL B] |  |
| > 40 | > 40 | > 40 | 57.4 | 56.6 | 69 | 58.7 | 61.2 | < 10 | C=CCc1ccc(O)c(-c2cc(CC=C)ccc2O)c1 [MAGNOLOL] | 78.2 |
| > 20 | > 20 | > 20 |  |  |  |  |  |  | C=CCc1ccc(O)c(-c2cc(CC=C)cc(CN3CCN(C(=O)N(C)C)CC3)c2O)c1 |  |
| > 20 | > 20 | > 20 |  |  |  |  |  |  | C=CCc1ccc(O)c(-c2cc(CC=C)cc(CN3CCN(C(=O)C4CC4)CC3)c2O)c1 |  |
| > 40 | > 40 | > 40 |  |  |  |  |  |  | C=CCc1cc(-c2cc(/C=C/CO)ccc2O)c(O)c([C@@H]2C=C(C)CC[C@H]2C(C)C)c1 |  |
| > 20 | > 20 | > 20 |  |  |  |  |  |  | C=CCc1ccc(O)c(-c2cc(CC=C)cc(CN3CCCC(C(=O)OCC)C3)c2O)c1 (stereo not given) |  |
| > 40 | > 40 | > 40 |  |  |  |  |  |  | C=CCc1ccc(O)c(-c2cc(C(=O)O)ccc2O)c1 |  |

| SMILES | IC50 [1] [µM] | IC50 [2] [µM] | IC50 [3] [µM] | IC50 [4] [µM] | IC50 [6] [µM] | IC50 [7] [µM] | IC50 [8] [µM] | IC50 [9] [µM] | solubility [10] [µg/mL] | IC50 [5] [µM] |
| --- | --- | --- | --- | --- | --- | --- | --- | --- | --- | --- |
| C=CCc1cc(-c2cc(C=O)ccc2O)ccc1O [MAGNALEDEHYDE E] | > 40 | > 40 | > 40 |  |  |  |  |  |  |  |

Reference: ChEMBL document CHEMBL4152332, “Discovery and synthesis of novel magnolol derivatives with potent anticancer activity in non-small cell lung cancer” (Eur J Med Chem, 2018)
